Tests used:
[1] = test system: CyPPO13 (Synechococcus sp. JA-3-3Ab PPO, SEQ ID NO: 4) variant F373L, MBP fusion; test: PPO inhibition assay; format: biochemical; details: herbicide 0-5,000 nM, 50 μM substrate
Method: (§1) The enzyme activities of PPO protein and PPO protein variants were examined, and inhibition assay by PPO-inhibiting herbicides was conducted. It was confirmed that the PPO protein has low water-solubility, but in case of being expressed as a fusion protein with MBP (maltose binding protein) (MBP-PPO), the PPO protein is able to be stably expressed as water-soluble form. Therefore, the wild type and variant proteins which were expressed in the form of fusion protein with MBP were used in the present test (refer to FIG. 4).
(§2) At first, a substrate of PPO protein, Protoporphyrinogen IX was synthesized. This process was performed in the space where nitrogen gas is streamed. 6 mg of protoporphyrin IX was dissolved in 20% (v/v) EtOH 20 ml, and stirred under dark condition for 30 minutes. The obtained protoporphyrinogen IX solution was put into a 15 ml screw tube in an amount of 800 and flushed with nitrogen gas for 5 minutes. To this, 1 g of sodium amalgam was added and vigorous shaking was performed for 2 minutes. The lid was open to exhaust hydrogen gas in the tube. Thereafter, the lid was closed and incubated for 3 minutes. The […] was filtered using syringe and cellulose membrane filter. To 600 μl of the obtained […], 2M MOPS [3-(N-morpholino)propanesulfonic acid] was added in an amount of approximately 300 thereby adjusting pH to 8.0. To determine the enzyme activity of PPO protein, a reaction mixture was prepared with the following composition (based on 10 ml): 50 mM Tris-Cl (pH 8.0); 50 mM NaCl; 0.04% (v/v) Tween 20; 40 mM glucose (0.072 g); 5 units glucose oxidase (16.6 mg); and 10 units catalase (1 μl).
(§3) Two hundred microliters (200 μl) of reaction mixture containing a purified PPO protein were placed in 96 well plates, and preincubated for 30 min at room temperature to reduce the oxygen concentration by the reaction of glucose oxidase-catalase. The mineral oil was layered and then the reaction was initiated by adding the substrate, protoporphyrin IX solution, to a final concentration of 50 μM. The reaction proceeded at room temperature for 30 min and the fluorescence of protoporphyrin IX was measured using Microplate reader (Sense, Hidex) (excitation: 405 nm; emission: 633 nm). To calculate the PPO enzyme activity, protoporphyrinogen IX solution was kept open in the air to oxidize the solution (overnight). To this, 2.7N HCl was added, and the absorbance at 408 nm was measured. A standard curve was generated using standard protoporphyrin IX, and the PPO activity was measured by calibration of protoporphyrin IX using the standard curve of protoporphyrin IX.
(§4) The final concentration of each herbicide was as follows: […]

[2] = test system: CyPPO13 (Synechococcus sp. JA-3-3Ab PPO, SEQ ID NO: 4) variant F373I, MBP fusion; test: PPO inhibition assay; format: biochemical; details: herbicide 0-5,000 nM, 50 μM substrate
Method: as §1, §2, §3, §4

[3] = test system: BT3 (ΔPPO) E. coli with CyPPO10m-6 (E225G, G258S, Q266L, T336I, V356F, F360M, A364D, R406G, W419R; SEQ ID NO: 131); test: Growth of BT3 with error-prone PCR mutant of CyPPO10; format: cell-based; details: up to 200 μM herbicide
[4] = test system: soybean transformed with CyPPO10 A167L+F360M; test: Herbicide tolerance of soybean; format: in vivo; details: T1, 150 μM saflufenacil spray, 5 days
[5] = test system: CyPPO13 (Synechococcus sp. JA-3-3Ab PPO, SEQ ID NO: 4) variant F373M, MBP fusion; test: PPO inhibition assay; format: biochemical; details: herbicide 0-5,000 nM, 50 μM substrate
[6] = molecular target: A. thaliana PPO1 (AtPPO1) (Arabidopsis thaliana, UniProt P55826); test: Michaelis-Menten kinetics of PPO (plant control); format: biochemical; details: protoporphyrinogen IX oxidation
Chain of A. thaliana PPO1 (AtPPO1) (P55826 35-537): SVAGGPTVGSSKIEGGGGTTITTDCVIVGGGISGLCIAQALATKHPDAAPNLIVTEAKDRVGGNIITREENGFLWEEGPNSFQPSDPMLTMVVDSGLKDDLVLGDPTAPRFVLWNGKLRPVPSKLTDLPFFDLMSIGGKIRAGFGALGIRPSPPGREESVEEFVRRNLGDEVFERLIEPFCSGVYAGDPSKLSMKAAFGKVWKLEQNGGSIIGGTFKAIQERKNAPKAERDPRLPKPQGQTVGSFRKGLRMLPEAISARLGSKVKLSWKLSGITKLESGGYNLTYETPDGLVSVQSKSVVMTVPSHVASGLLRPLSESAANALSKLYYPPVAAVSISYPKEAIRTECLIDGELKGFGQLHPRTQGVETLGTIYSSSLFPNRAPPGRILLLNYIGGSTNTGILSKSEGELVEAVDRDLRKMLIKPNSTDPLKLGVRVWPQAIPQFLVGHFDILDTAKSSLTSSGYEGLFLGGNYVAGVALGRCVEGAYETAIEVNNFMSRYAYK

[7] = test system: CyPPO13 (Synechococcus sp. JA-3-3Ab protoporphyrinogen oxidase, wild type, SEQ ID NO: 4), MBP fusion; test: Michaelis-Menten kinetics of purified PPO; format: biochemical; details: protoporphyrinogen IX oxidation, room temperature, pH 8.0
[8] = molecular target: T1, CyPPO10 (Thermosynechococcus elongatus BP-1 protoporphyrinogen oxidase, wild type, SEQ ID NO: 2), MBP fusion (Thermosynechococcus vestitus, UniProt Q8DLV2); test: Michaelis-Menten kinetics of purified PPO; format: biochemical; details: protoporphyrinogen IX oxidation, room temperature, pH 8.0
T1 construct: kinetics with protoporphyrinogen IX
T1 sequence (Q8DLV2 1-467): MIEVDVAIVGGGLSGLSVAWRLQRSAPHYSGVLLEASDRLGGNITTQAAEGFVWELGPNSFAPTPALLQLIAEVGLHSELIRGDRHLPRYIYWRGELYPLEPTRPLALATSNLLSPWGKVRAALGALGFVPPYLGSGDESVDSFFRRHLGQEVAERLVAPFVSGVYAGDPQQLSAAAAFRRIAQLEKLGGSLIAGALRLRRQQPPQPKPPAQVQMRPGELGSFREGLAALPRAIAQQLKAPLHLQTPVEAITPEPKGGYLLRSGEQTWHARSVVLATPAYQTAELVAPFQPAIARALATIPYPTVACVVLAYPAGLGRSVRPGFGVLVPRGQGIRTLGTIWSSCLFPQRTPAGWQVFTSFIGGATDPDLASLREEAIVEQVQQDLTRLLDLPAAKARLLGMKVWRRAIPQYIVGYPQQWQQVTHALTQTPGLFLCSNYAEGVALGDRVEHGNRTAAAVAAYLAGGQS
Method: as §1
At first, a substrate of PPO protein, Protoporphyrinogen IX was synthesized. This process was performed in the space where nitrogen gas is streamed. […]
as §3, with “The mineral oil was layered and then the reaction was initiated by adding the substrate, protoporphyrin IX solution, to a final concentration of 50 μM.” left out, “To calculate the PPO enzyme activity, protoporphyrinogen IX solution was kept open in the air to oxidize the solution (overnight).” left out, “IX. […]” for “IX.”

Amaranthus PPO1 = test: Michaelis-Menten kinetics of PPO (plant control); format: biochemical; details: protoporphyrinogen IX oxidation
[9] = molecular target: CyPPO10 (Thermosynechococcus elongatus BP-1 PPO, SEQ ID NO: 2), wild type, MBP fusion (Thermosynechococcus vestitus, UniProt Q8DLV2); test: PPO inhibition assay; format: biochemical
Chain of CyPPO10 (Thermosynechococcus elongatus BP-1 PPO, SEQ ID NO: 2), wild type, MBP fusion (Q8DLV2 1-467): as above

[10] = molecular target: CyPPO10 (Thermosynechococcus elongatus BP-1 PPO, SEQ ID NO: 2) variant R89A + F360I, MBP fusion (Thermosynechococcus vestitus, UniProt Q8DLV2, F360I/R89A); test: biochemical
Chain of CyPPO10 (Thermosynechococcus elongatus BP-1 PPO, SEQ ID NO: 2) variant R89A + F360I, MBP fusion (Q8DLV2 entry or part of it R89A/F360I): as the sequence (Q8DLV2 1-467) above, with R89A, F360I counted along it

[11] = molecular target: CyPPO10 (Thermosynechococcus elongatus BP-1 PPO, SEQ ID NO: 2) variant F360I, MBP fusion (Thermosynechococcus vestitus, UniProt Q8DLV2, F360I); test: PPO inhibition assay; format: biochemical
Chain of CyPPO10 (Thermosynechococcus elongatus BP-1 PPO, SEQ ID NO: 2) variant F360I, MBP fusion (Q8DLV2 entry or part of it F360I): as the sequence (Q8DLV2 1-467) above, with F360I counted along it

[12] = molecular target: CyPPO10 (Thermosynechococcus elongatus BP-1 PPO, SEQ ID NO: 2) variant F360M, MBP fusion (Thermosynechococcus vestitus, UniProt Q8DLV2, F360M); test: biochemical
Chain of CyPPO10 (Thermosynechococcus elongatus BP-1 PPO, SEQ ID NO: 2) variant F360M, MBP fusion (Q8DLV2 entry or part of it F360M): as the sequence (Q8DLV2 1-467) above, with F360M counted along it

[13] = test system: CyPPO13 (Synechococcus sp. JA-3-3Ab PPO, SEQ ID NO: 4), wild type, MBP fusion; test: PPO inhibition assay; format: biochemical; details: herbicide 0-5,000 nM, 50 μM substrate
[14] = molecular target: CyPPO10 (Thermosynechococcus elongatus BP-1 PPO, SEQ ID NO: 2) variant R89A + F360M, MBP fusion (Thermosynechococcus vestitus, UniProt Q8DLV2, F360M/R89A); test: biochemical; details: herbicide 0-5,000 nM, 50 μM substrate
Chain of CyPPO10 (Thermosynechococcus elongatus BP-1 PPO, SEQ ID NO: 2) variant R89A + F360M, MBP fusion (Q8DLV2 entry or part of it R89A/F360M): as the sequence (Q8DLV2 1-467) above, with R89A, F360M counted along it

## CC(C)N(C)S(=O)(=O)NC(=O)c1cc(-n2c(=O)cc(C(F)(F)F)n(C)c2=O)c(F)cc1Cl [Saflufenacil]
[1]
  IC50: 1470 nM
[2]
  IC50: 1480 nM
[3]
  cell viability: cell viability similar to that of cells with wild type CyPPO10
[4]
  damage level: no damage
[5]
  IC50: 481 nM

## C=Cc1c2[nH]c(c1C)Cc1[nH]c(c(CCC(=O)O)c1C)Cc1[nH]c(c(C)c1CCC(=O)O)Cc1[nH]c(c(C)c1C=C)C2 [Protoporphyrinogen IX]
[6]
  Vmax: 134.4 ± 19 μM mg protein^−1 min^−1
[7]
  Vmax: 341.4 ± 14 μM mg protein^−1 min^−1
[8]
  Vmax: 949.1 ± 64 μM mg protein^−1 min^−1
Amaranthus PPO1
  Vmax: 57 ± 7 μM mg protein^−1 min^−1

## C=CCOC(=O)C(C)(C)OC(=O)c1cc(-n2c(=O)cc(C(F)(F)F)n(C)c2=O)ccc1Cl [Butafenacil]
[9]
  IC50: 8 nM
[10]
  IC50: 1320 nM
[11]
  IC50: 268 nM
[12]
  IC50: 24 nM
[13]
  IC50: 37 nM
[14]
  IC50: 674 nM

Reference: patent US11466286B2, “Methods and compositions for conferring and/or enhancing herbicide tolerance using protoporphyrinogen oxidase or variant thereof” (FarmHannong Co., Ltd., priority 2016, dated 2022)
